Common to all, as to type: in vivo
The test system of experiment [1] is Myzus persicae. The experiment in a line: B2: Myzus persicae (green peach aphid), mixed population, feeding/residual contact activity, preventive. The following applies: foliar, 144 h, sunflower leaf discs sprayed with test solutions of 200 ppm, aphid population of mixed ages, 6 days incubation, read-out: control of Myzus persicae (mortality). On the procedure:
B2: Myzus persicae (green peach aphid) (mixed population, feeding/residual contact activity, preventive)
Sunflower leaf discs are placed on agar in a 24-well microtiter plate and sprayed with test solutions of 200 ppm. After drying, the leaf discs are infested with an aphid population of mixed ages. After an incubation period of 6 days, samples are checked for mortality and special effects (e.g. phytotoxicity).

Experiment [2] concerns Myzus persicae. The experiment is described as follows: B3: Myzus persicae (green peach aphid), mixed population, systemic/feeding activity, curative. The following applies: 144 h, roots of infested pea seedlings placed in test solutions of 24 ppm, 6 days after introduction, read-out: control of Myzus persicae (mortality). From the text:
B3: Myzus persicae (green peach aphid) (mixed population, systemic/feeding activity, curative)
Roots of pea seedlings, infested with an aphid population of mixed ages, are placed directly in the test solutions of 24 ppm. 6 days after introduction, samples are checked for mortality and special effects on the plant.

Experiment [3] has as its system Myzus persicae. The experiment in a line: B1: Myzus persicae (green peach aphid), mixed population, sachet test. The following applies: 144 h, 12.5 ppm test compound in 30% sucrose solution, parafilm sachet, 6 days after infestation, read-out: control of Myzus persicae (mortality, feeding activity). How it is done: B1: Myzus persicae (green peach aphid) (mixed population, sachet test)
Each well of a 24-well microtiter plate is filled with 0.6 ml 30% sucrose solution, containing 12.5 ppm of the test compounds. For producing the sachets, the wells are covered with streched parafilm and infested with a mixed population of Myzus persicae. 6 days after the infestation, samples are checked for mortality (feeding activity).

Bounds are passed on as bounds.

For `NC1=NS(=O)(=O)c2c(Br)cccc21` [Compound P1.1, 7-bromo-1,1-dioxo-1H-1λ^6-benzo[d]isothiazol-3-ylamine], the mortality – broadly, the percentage killed – at 200 ppm in the experiment on Myzus persicae [1] is not below 80%. Besides, in the experiment with Myzus persicae [2], the mortality at 24 ppm is not below 80%.
Regarding `CNC1=NS(=O)(=O)c2c(F)cccc21` [Compound P1.15, (7-Fluoro-1,1-dioxo-1H-1λ^6-benzo[d]isothiazol-3-yl)-methyl-amine], in the experiment with Myzus persicae [1], the mortality at 200 ppm is not below 80%. In addition, in the experiment on Myzus persicae [2], the mortality at 24 ppm is not below 80%.
In the case of `CC(C)N1C(=N)c2cccc(Br)c2S1(=O)=O` [Compound P2.1, 7-bromo-2-isopropyl-1,1-dioxo-1,2-dihydro-1λ^6-benzo[d]isothiazol-3-ylideneamine], in the experiment on Myzus persicae [3], the mortality at 12.5 ppm was not below 80%.

Source of the values: patent US8563744B2, “3-amino-benzo [D] isothiazole dioxide derivatives and their use as pesticides” (Syngenta Crop Protection, LLC, priority 2008, dated 2013).
